Test results as given in ChEMBL document CHEMBL1201862, “PubChem BioAssay data set” (2004).
The source made the active and inactive calls.

Columns and labels:
[1] = biological target: T1, Short transient receptor potential channel 4 (Mus musculus, UniProt Q9QUQ5); assay: TRPC4 positive allosteric modulators, dose response, cell-based, HEK293 TRPC4/mu-opioid, Fluo-4 calcium, EC20 DAMGO (AID 434941); type: functional
T1 sequence (Q9QUQ5 whole entry): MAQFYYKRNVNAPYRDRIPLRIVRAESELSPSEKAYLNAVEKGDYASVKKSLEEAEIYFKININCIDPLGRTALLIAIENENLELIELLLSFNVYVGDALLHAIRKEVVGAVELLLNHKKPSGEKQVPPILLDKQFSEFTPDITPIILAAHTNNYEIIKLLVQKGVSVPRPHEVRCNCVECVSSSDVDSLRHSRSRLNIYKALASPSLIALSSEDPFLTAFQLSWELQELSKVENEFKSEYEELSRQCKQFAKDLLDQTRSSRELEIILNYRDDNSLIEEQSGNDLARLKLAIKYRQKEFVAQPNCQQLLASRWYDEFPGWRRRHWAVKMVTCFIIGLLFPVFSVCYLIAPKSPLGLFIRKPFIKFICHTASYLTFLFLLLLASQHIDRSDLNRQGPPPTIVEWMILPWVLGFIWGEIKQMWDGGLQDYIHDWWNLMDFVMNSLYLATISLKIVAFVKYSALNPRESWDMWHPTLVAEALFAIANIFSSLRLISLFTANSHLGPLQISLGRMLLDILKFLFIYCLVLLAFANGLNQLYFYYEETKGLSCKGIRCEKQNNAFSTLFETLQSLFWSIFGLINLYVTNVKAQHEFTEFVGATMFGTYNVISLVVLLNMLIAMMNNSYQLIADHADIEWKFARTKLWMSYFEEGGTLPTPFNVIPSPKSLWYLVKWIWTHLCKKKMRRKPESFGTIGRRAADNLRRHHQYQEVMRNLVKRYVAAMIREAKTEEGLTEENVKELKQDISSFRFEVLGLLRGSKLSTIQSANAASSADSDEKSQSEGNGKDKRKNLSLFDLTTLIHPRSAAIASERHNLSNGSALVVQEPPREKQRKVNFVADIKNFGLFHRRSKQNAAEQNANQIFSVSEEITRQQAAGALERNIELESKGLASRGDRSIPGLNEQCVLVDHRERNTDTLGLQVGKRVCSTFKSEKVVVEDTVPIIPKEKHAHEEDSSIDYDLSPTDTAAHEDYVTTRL

[2] = biological target: T2, Streptokinase A (Streptococcus pyogenes serotype M1, UniProt P10520); assay: S. pyogenes streptokinase expression inhibitors, potency, dose response, plasminogen activation absorbance, OD405 (AID 1914); type: functional, Streptococcus pyogenes M1 GAS;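 further: secreted streptokinase activity via plasminogen activation per viability signal from cell pellet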
T2 sequence (P10520 whole entry): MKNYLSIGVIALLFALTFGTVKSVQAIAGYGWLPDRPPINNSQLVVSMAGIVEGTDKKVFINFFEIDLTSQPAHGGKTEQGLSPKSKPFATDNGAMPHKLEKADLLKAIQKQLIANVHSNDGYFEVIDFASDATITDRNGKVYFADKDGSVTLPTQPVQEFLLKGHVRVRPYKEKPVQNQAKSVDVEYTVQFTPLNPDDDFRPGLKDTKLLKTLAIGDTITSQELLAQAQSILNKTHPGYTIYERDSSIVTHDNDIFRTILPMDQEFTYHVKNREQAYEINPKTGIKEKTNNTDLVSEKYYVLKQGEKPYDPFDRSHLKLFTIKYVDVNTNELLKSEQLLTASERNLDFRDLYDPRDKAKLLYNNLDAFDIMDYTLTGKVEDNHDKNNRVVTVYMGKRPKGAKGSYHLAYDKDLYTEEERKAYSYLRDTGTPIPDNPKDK

[3] = growth suppression of PTEN-null colon cells, dose response, cell-based, HCT116 PTEN knockout (AID 1047); type: functional;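 further: HCT116 colon tumor cells with PTEN knocked out; cells exposed to compound for 60 hours before readout; potency for loss of cell viability measured by luminescence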
[4] = growth suppression of beta-catenin-knockout colon cells, dose response, cell-based, HCT116, human colon tumor (AID 1045); type: functional;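 further: HCT116 colon tumor cells with beta catenin knocked out; cells exposed to compound for 60 hours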
[5] = test system: Streptococcus sp. 'group A'; assay: growth inhibition of control SK(-) GAS strain, dose response, counter-screen for streptokinase expression inhibitor project, luminescence, kanamycin, BacTiterGlo, confirmation (AID 1900); type: functional, organism-based
[6] = biological target: T3, Corticotropin-releasing factor receptor 2/Corticotropin-releasing factor-binding protein (Homo sapiens, UniProt P24387+Q13324); assay: activators of CRF receptor 2 with binding protein – uHTS hits, confirmation (AID 602473); type: functional; settings: read-out: EC50_Mean
T3 sequence (Q13324 whole entry): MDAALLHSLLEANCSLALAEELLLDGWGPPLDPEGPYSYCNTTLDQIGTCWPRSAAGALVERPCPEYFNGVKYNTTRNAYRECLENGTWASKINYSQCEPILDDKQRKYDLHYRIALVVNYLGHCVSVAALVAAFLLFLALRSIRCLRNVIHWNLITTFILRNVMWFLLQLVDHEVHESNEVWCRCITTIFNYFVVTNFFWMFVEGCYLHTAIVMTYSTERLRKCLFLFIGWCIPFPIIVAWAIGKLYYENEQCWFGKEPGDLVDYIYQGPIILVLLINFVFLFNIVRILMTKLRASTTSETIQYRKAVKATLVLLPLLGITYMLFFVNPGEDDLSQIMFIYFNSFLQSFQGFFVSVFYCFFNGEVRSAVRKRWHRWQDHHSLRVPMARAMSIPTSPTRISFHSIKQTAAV
T3 sequence (P24387 whole entry): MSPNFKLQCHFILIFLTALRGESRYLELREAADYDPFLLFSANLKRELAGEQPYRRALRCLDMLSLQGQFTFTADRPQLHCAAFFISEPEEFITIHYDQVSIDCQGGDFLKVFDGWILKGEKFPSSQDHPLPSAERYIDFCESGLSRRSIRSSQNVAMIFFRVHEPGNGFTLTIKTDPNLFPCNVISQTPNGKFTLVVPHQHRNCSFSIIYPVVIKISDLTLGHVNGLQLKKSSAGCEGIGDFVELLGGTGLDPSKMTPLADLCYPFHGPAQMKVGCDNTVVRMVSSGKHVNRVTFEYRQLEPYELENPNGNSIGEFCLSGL

[7] = test system: Streptococcus; assay: Group A Streptococcus viability loss, dose response, counter-screen for streptokinase expression inhibitor project, luminescence, BacTiterGlo (AID 1915); type: functional, organism-based;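 further: potency for reduction of bacterial viability or growth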
[8] = biological target: Troponin, cardiac muscle (Homo sapiens, UniProt P19429+P45379+P63316); assay: Fluorescence-based biochemical high throughput dose response assay for activators of the calcium sensitivity of cardiac Regulated Thin Filaments (RTF). [Related pubchem assays (depositor defined):AID493008, AID493018, AID504382, AID504383]; type: protein-complex assay
[9] = biological target: T4, Cannabinoid receptor 1 (Homo sapiens, UniProt P21554); assay: SAR analysis of agonists of the Cannabinoid Receptor 1 using an Image-Based Assay - Set 3. [Related pubchem assays (depositor defined):AID1961, AID1965]; type: functional
[10] = biological target: T5, Cannabinoid receptor 2 (Homo sapiens, UniProt P34972); assay: SAR analysis of antagonists of the Cannabinoid Receptor 2 using an Image-Based Assay - Set 2. [Related pubchem assays (depositor defined):AID1961, AID1965]; type: functional
[11] = biological target: T5, Cannabinoid receptor 2; assay: SAR analysis of agonists of the Cannabinoid Receptor 2 using an Image-Based Assay - Set 2. [Related pubchem assays (depositor defined):AID1961, AID1965]; type: functional
[12] = biological target: G-protein coupled receptor 55 (Homo sapiens, UniProt Q9Y2T6); assay: SAR analysis of selective Agonists of GPR55 using an Image-Based Assay - Set 2. [Related pubchem assays (depositor defined):AID1961, AID1965]; type: functional
[13] = biological target: T6, G-protein coupled receptor 35 (Homo sapiens, UniProt Q9HC97); assay: SAR analysis of Agonists of the GPR35 Receptor using an Image-Based Assay - Set 3. [Related pubchem assays (depositor defined):AID1961, AID1965]; type: functional
[14] = biological target: T4, Cannabinoid receptor 1; assay: SAR analysis of antagonists of the Cannabinoid Receptor 1 using an Image-Based Assay - Set 3. [Related pubchem assays (depositor defined):AID1961, AID1965]; type: functional
[15] = biological target: T6, G-protein coupled receptor 35; assay: SAR analysis of Antagonists of the GPR35 Receptor using an Image-Based Assay - Set 4. [Related pubchem assays (depositor defined):[…]]; type: functional
[16] = biological target: Phosphomannomutase 2 (Homo sapiens, UniProt O15305); assay: Counter screen SAR assay for PMM2 inhibitors via a fluorescence intensity assay. [Related pubchem assays (depositor defined):AID1545, AID1574]
Phosphomannomutase 2, sequence (O15305 whole entry): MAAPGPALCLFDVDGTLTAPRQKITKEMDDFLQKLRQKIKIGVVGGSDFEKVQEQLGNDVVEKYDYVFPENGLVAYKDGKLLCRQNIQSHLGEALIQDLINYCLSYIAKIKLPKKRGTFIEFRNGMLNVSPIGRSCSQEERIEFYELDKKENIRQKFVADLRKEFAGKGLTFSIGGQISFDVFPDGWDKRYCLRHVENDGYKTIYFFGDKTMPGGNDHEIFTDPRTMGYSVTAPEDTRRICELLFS

T4 sequence (P21554 whole entry): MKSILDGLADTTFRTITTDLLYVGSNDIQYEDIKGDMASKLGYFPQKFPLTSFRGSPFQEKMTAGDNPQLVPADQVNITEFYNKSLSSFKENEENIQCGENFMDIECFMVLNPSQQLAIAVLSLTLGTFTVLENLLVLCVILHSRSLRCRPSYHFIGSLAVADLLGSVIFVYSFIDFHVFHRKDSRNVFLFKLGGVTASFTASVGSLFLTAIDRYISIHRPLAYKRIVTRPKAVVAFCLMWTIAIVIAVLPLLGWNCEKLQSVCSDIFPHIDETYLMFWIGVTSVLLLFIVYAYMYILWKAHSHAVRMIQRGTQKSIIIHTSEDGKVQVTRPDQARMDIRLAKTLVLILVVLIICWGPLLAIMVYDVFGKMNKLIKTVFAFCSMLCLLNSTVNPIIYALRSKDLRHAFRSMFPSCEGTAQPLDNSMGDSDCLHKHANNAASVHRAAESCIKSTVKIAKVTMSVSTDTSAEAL
T5 sequence (P34972 whole entry): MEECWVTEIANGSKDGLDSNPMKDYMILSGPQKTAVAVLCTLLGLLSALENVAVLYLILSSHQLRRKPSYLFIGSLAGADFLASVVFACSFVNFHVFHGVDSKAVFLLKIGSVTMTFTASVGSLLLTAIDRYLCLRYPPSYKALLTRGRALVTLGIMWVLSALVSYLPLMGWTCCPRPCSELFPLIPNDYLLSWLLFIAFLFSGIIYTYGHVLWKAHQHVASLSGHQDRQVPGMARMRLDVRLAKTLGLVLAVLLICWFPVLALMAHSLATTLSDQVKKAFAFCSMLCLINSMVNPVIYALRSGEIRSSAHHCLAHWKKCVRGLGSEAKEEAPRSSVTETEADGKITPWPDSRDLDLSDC
T6 sequence (Q9HC97 whole entry): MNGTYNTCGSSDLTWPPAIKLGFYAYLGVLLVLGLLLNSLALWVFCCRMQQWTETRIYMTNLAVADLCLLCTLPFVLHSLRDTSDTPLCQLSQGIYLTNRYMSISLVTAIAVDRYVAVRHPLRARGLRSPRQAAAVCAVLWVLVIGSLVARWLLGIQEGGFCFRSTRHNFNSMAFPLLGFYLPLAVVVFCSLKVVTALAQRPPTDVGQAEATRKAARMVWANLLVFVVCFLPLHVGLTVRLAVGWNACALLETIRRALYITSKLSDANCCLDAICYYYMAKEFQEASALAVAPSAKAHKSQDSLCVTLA
G-protein coupled receptor 55, sequence (Q9Y2T6 whole entry): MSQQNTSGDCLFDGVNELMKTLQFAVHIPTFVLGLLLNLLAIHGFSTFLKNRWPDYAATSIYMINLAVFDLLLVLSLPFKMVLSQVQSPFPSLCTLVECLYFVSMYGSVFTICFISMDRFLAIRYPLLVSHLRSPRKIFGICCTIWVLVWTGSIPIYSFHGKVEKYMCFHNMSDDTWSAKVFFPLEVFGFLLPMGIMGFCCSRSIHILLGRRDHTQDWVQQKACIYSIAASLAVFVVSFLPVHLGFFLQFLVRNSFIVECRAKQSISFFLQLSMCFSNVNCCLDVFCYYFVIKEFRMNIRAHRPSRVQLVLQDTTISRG

For `Cc1ccc(Cl)cc1N1CCN(C(=O)c2cccc3c(=O)c(C)c(-c4ccccc4)oc23)CC1`, the EC50 [1] was 6.68 µM (active), the EC50 [2] was 16 µM (active) and the EC50 [3] was 8.26 µM (active). The EC50 [4] was 9.86 µM (active), the EC50 [5] was 5.59 µM (active) and the EC50 [6] was > 53 µM (inactive). For the same compound, the EC50 [7] was > 150 µM (not active).
With `O=C(/C=C/c1nc2ccccc2s1)N1CCCCCC1` the EC50 [8] was > 71.5 µM (inactive).
With `CCOc1ccccc1N1CCN(C(=O)c2cc(S(=O)(=O)N(C)C)ccc2N2CCCC2)CC1` the EC50 [9] was > 32 µM (inactive), the IC50 [10] was > 32 µM (inactive) and the EC50 [11] was > 32 µM (inactive). The EC50 [12] was > 32 µM (inactive), the EC50 [13] was > 32 µM (inactive) and the IC50 [14] was > 32 µM (inactive). The IC50 [15] was > 32 µM (inactive).
In the case of `CN(C)c1cccc(/N=c2\ssnc2Cl)c1`, the IC50 [16] is reported as > 100 µM (inactive).
